Assay results as given in ChEMBL document CHEMBL1201862, “PubChem BioAssay data set” (2004).
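Protocol summary: plate cells (96-well), add compound at 5 concentrations, incubate 48 h, interpolate endpoints linearly. GI50: concentration for 50% inhibition of growth.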 Activity calls are given as the source filed them. Rule as the data show it: active = GI50 up to about 1.1 µM and inactive = higher.

Assays:
Experiment in all cases: NCI tumour cell line growth inhibition, 48 h
[1] = test system: A498
[2] = test system: A549
[3] = test system: HCT-116
[4] = test system: HT-29
[5] = test system: IGROV-1
[6] = test system: KM12
[7] = test system: MCF7
[8] = test system: Malme-3M
[9] = test system: NCI-H522
[10] = test system: OVCAR-3
[11] = test system: OVCAR-4
[12] = test system: RPMI-8226
[13] = test system: SK-MEL-5
[14] = test system: SR
[15] = test system: SW-620
[16] = test system: T47D
[17] = test system: TK-10
[18] = test system: UACC-62
[19] = test system: UO-31
[20] = test system: CCRF-CEM

Structure (SMILES)	GI50 [1]	GI50 [2]	GI50 [3]	GI50 [4]	GI50 [5]	GI50 [6]	GI50 [7]	GI50 [8]	GI50 [9]	GI50 [10]	GI50 [11]	GI50 [12]	GI50 [13]	GI50 [14]	GI50 [15]	GI50 [16]	GI50 [17]	GI50 [18]	GI50 [19]	GI50 [20]
CN(C)CC(C)(C)CN1c2ccccc2Sc2ccccc21	13.6 µM (inactive)	15.5 µM (inactive)	13.8 µM (inactive)	10.8 µM (inactive)	14.9 µM (inactive)	12.8 µM (inactive)	16.4 µM (inactive)	14.8 µM (inactive)	13.2 µM (inactive)	11.9 µM (inactive)	12.9 µM (inactive)	16.4 µM (inactive)	16 µM (inactive)	10.1 µM (inactive)	15 µM (inactive)	14.2 µM (inactive)	13.9 µM (inactive)	14.9 µM (inactive)		
CC(=O)OCC1OC(N2C(=O)NC(=O)C3C=C4CCCCC4=CC32)CC1OC(C)=O (stereo unspecified)	> 100 µM (inactive)	> 100 µM (inactive)	> 100 µM (inactive)	> 100 µM (inactive)	> 100 µM (inactive)	> 100 µM (inactive)	> 100 µM (inactive)	> 100 µM (inactive)	70 µM (inactive)	> 100 µM (inactive)	> 100 µM (inactive)	> 100 µM (inactive)		> 100 µM (inactive)	> 100 µM (inactive)	> 100 µM (inactive)	> 100 µM (inactive)	> 100 µM (inactive)	> 100 µM (inactive)	
N#CC1=C(N)OC2=C(CSc3ccccc32)C1c1ccc(Br)cc1 (stereo unspecified)	13 µM (inactive)	7.08 µM (inactive)	2.96 µM (inactive)	4.59 µM (inactive)	6.97 µM (inactive)	4.37 µM (inactive)	3.42 µM (inactive)	13.4 µM (inactive)		5.57 µM (inactive)	5.79 µM (inactive)	2.07 µM (inactive)	11.6 µM (inactive)	2.54 µM (inactive)	5.22 µM (inactive)	4.04 µM (inactive)	13.6 µM (inactive)	6.65 µM (inactive)	11.5 µM (inactive)	2.72 µM (inactive)
N#CC(c1ccccc1)c1cccc2ccccc12 (stereo unspecified)	30.4 µM (inactive)	20.1 µM (inactive)	65 µM (inactive)	43.2 µM (inactive)	19.9 µM (inactive)	21.8 µM (inactive)	33.6 µM (inactive)	21.5 µM (inactive)	22 µM (inactive)	29.9 µM (inactive)	47.5 µM (inactive)	25.7 µM (inactive)	18.2 µM (inactive)	12.3 µM (inactive)	38.4 µM (inactive)	38.5 µM (inactive)	42.4 µM (inactive)	52.2 µM (inactive)	28.2 µM (inactive)	
CC1=C(C(=O)Nc2cccc3c2C(=O)NC3=O)CC(C(=O)Nc2cccc3c2C(=O)NC3=O)=C(C)N1	> 100 µM (inactive)	> 100 µM (inactive)	> 100 µM (inactive)		> 100 µM (inactive)	> 100 µM (inactive)	> 100 µM (inactive)	> 100 µM (inactive)	> 100 µM (inactive)	> 100 µM (inactive)	> 100 µM (inactive)	> 100 µM (inactive)	> 100 µM (inactive)	> 100 µM (inactive)	> 100 µM (inactive)	> 100 µM (inactive)	> 100 µM (inactive)	> 100 µM (inactive)	> 100 µM (inactive)	> 100 µM (inactive)
CCCCC(O)(c1ccccc1)C(O)(c1ccccc1)c1c(F)c(F)c(F)c(F)c1F (stereo unspecified)	25.5 µM (inactive)	28.4 µM (inactive)	18.1 µM (inactive)	14.1 µM (inactive)	33.3 µM (inactive)		20.3 µM (inactive)	16.7 µM (inactive)		17.4 µM (inactive)	44.4 µM (inactive)	18.2 µM (inactive)	18.4 µM (inactive)	25.3 µM (inactive)	25.2 µM (inactive)	35.4 µM (inactive)	26.4 µM (inactive)	17.4 µM (inactive)	30.3 µM (inactive)	25.4 µM (inactive)
c1ccc2c(c1)nc1ccccn12	1.37 µM (inactive)	> 100 µM (inactive)	> 100 µM (inactive)	> 100 µM (inactive)	> 100 µM (inactive)	> 100 µM (inactive)	> 100 µM (inactive)	> 100 µM (inactive)		> 100 µM (inactive)		> 100 µM (inactive)	> 100 µM (inactive)	> 100 µM (inactive)	> 100 µM (inactive)	> 100 µM (inactive)	> 100 µM (inactive)	> 100 µM (inactive)	> 100 µM (inactive)	> 100 µM (inactive)
CN(C)CCCCCNc1c2ccccc2nc2cccc([N+](=O)[O-])c12	0.00258 µM (active)	0.000685 µM (active)	0.00074 µM (active)	0.0011 µM (active)	0.0022 µM (active)	0.00957 µM (active)	0.00583 µM (active)	0.00185 µM (active)		0.00146 µM (active)	0.000653 µM (active)	0.00042 µM (active)	0.00154 µM (active)	0.000447 µM (active)	0.000877 µM (active)	0.00973 µM (active)	0.00337 µM (active)	0.00183 µM (active)		0.024 µM (active)
CCOC(=O)C1=NN(c2ccccc2)C(=O)/C1=C\NC(=S)C(N)=S	> 100 µM (inactive)	66.1 µM (inactive)	20.5 µM (inactive)	41.8 µM (inactive)	42.6 µM (inactive)	70.6 µM (inactive)	36.1 µM (inactive)	45.3 µM (inactive)	16.6 µM (inactive)	38.5 µM (inactive)	40.9 µM (inactive)		19.6 µM (inactive)	35.2 µM (inactive)	38.5 µM (inactive)	13.1 µM (inactive)	36.2 µM (inactive)	29.3 µM (inactive)	19.2 µM (inactive)	34.1 µM (inactive)
Nn1c(SCC(=O)NCc2ccccc2)nc2ccccc2c1=O	61.2 µM (inactive)	31.3 µM (inactive)	29.4 µM (inactive)	45.4 µM (inactive)	53.3 µM (inactive)	> 100 µM (inactive)	52.1 µM (inactive)	51.2 µM (inactive)	41.7 µM (inactive)	32.3 µM (inactive)	54.2 µM (inactive)	40.8 µM (inactive)	41 µM (inactive)	21.1 µM (inactive)	57 µM (inactive)	> 100 µM (inactive)	41.5 µM (inactive)	41.6 µM (inactive)	43.9 µM (inactive)	13.7 µM (inactive)
COC(=O)c1c(OC(C)=O)ccc2c1c1c(n2C)C(=O)c2ccccc2C1=O	13.5 µM (inactive)	20.7 µM (inactive)	20.5 µM (inactive)	46.8 µM (inactive)	3.86 µM (inactive)	29.1 µM (inactive)	18.7 µM (inactive)	23.9 µM (inactive)	21.7 µM (inactive)	17.9 µM (inactive)	28.6 µM (inactive)	8.15 µM (inactive)	13.9 µM (inactive)	31.1 µM (inactive)		4.81 µM (inactive)	31 µM (inactive)	35.3 µM (inactive)	21 µM (inactive)	
COc1cc2c3c(n(Cc4ccccc4)c(=O)c2cc1OC)-c1ccccc1C3=O		> 100 µM (inactive)	> 100 µM (inactive)	> 100 µM (inactive)	> 100 µM (inactive)	> 100 µM (inactive)	> 100 µM (inactive)	> 100 µM (inactive)	> 100 µM (inactive)	> 100 µM (inactive)	> 100 µM (inactive)	> 100 µM (inactive)	> 100 µM (inactive)	4.1 µM (inactive)	> 100 µM (inactive)	> 100 µM (inactive)	> 100 µM (inactive)	> 100 µM (inactive)	> 100 µM (inactive)	17.9 µM (inactive)
Cc1cc(C)c2c(n1)S(=O)(=O)N(CCCN1CCN(c3cccc(Cl)c3)CC1)C(C(=O)c1ccccc1)=C2O	28.8 µM (inactive)	30.4 µM (inactive)	24.2 µM (inactive)	30.8 µM (inactive)	40.3 µM (inactive)	33.7 µM (inactive)	29.8 µM (inactive)	64.3 µM (inactive)	24.8 µM (inactive)	22.8 µM (inactive)	24.7 µM (inactive)		21.6 µM (inactive)	17.1 µM (inactive)	31.8 µM (inactive)	38.8 µM (inactive)	27 µM (inactive)	36.1 µM (inactive)	19.2 µM (inactive)	25.9 µM (inactive)
COc1cc(/C=C2\C[C@H]3[C@@H]4CCc5cc(OCCN6CCCC6)ccc5[C@H]4CC[C@]3(C)C2=O)cc(OC)c1OC	1.78 µM (inactive)	1.69 µM (inactive)	1.54 µM (inactive)		1.57 µM (inactive)	1.69 µM (inactive)	1.65 µM (inactive)				1.6 µM (inactive)	1.66 µM (inactive)	1.53 µM (inactive)	0.314 µM (active)	1.91 µM (inactive)	1.95 µM (inactive)	2.53 µM (inactive)	2.52 µM (inactive)	1.54 µM (inactive)	
C/C=C1/CN2CCC3(O)c4ccccc4N4C=C(C(=O)OC)C1CC2C43O (stereo unspecified)		> 100 µM (inactive)	> 100 µM (inactive)	> 100 µM (inactive)	> 100 µM (inactive)	> 100 µM (inactive)	> 100 µM (inactive)	> 100 µM (inactive)	> 100 µM (inactive)	> 100 µM (inactive)	> 100 µM (inactive)	> 100 µM (inactive)	> 100 µM (inactive)	> 100 µM (inactive)	> 100 µM (inactive)	> 100 µM (inactive)	> 100 µM (inactive)	> 100 µM (inactive)	> 100 µM (inactive)	> 100 µM (inactive)
